Measurements reported in patent US20060166941A1, “Treatment and/or prevention of non-viral epithelial damage” (Epistem Limited, priority 2003, published 2006).
“And” between values parts separate entries of the source, which are not always exact repeats. Equal entries are not always repeated. Structures can show the parent of a compound that is named as a salt.

Tests used:
[1] = test system: digestive epithelia; assay: Diarrhoea prevention assay, 14 Gy X-ray partial body radiation; format: in vivo, mice; details: for incidence of diarrhoea (perianal soilage): 5 mice
Source text: Diarrhoea Prevention Assay The ability of foscarnet (phosphonoformic acid trisodium salt hexahydrate) to prevent diarrhoea following radiological injury to digestive epithelia was investigated. The model of radiological insult used was treatment with 14 Gy X-ray partial body radiation (head and thorax lead shielded) at a dose rate of 0.7 Gy/minute. Such radiation treatment provides a model of radiotherapy administered to patients undergoing treatment for cancer. Three experimental groups, each of five mice, were established as set out below: Group 1: Received intra-peritoneal injection, containing 50 mg foscarnet/kilogram bodyweight, in sterile water, one hour prior to radiation treatment. Received one further identical injection on each of the next five days following radiation treatment. Group 2: Received intra-peritoneal injection, containing 100 mg foscarnet/kilogram bodyweight, in sterile water, one hour prior to radiation treatment. Received one further identical injection on each of the next five days following radiation treatment. Group 3: Vehicle control. […] Received intra-peritoneal injection, of sterile water, one hour prior to radiation treatment. Received one further identical injection on each of the next five days following radiation treatment. The incidences of both diarrhoea (measured by assessing perianal soilage twice daily) and morbidity among experimental animals were measured over the course of the seven days following radiation treatment.

[2] = test system: clonogenic stem cells of the digestive epithelium; assay: In vivo protection of intestinal epithelium clonogenic stem cells, chemotherapy drug (5-Flurouracil) damage; set-up: species or system mice
Experimental: In Vivo Protection of Intestinal Epithelium Clonogenic Stem Cells—Chemotherapy Drug Damage.
The ability of foscarnet (phosphonoformic acid trisodium salt hexahydrate) to prevent cytotoxic damage to clonogenic stem cells of the digestive epithelium was illustrated by the following experiment.
The model of cytotoxic insult used was treatment with 2 doses of 5-Flurouracil 6 hours apart at either 400 mg or 500 mg of 5-Fluorouracil/kilogram bodyweight. Such cytotoxic treatment provides a model of chemotherapy administered to patients undergoing treatment for cancer.
Five experimental groups, each of five mice, were established as set out below:
Group 1: Received intra-peritoneal injection, containing 50 mg foscarnet/kilogram bodyweight, in sterile water, one hour prior to the first cytotoxic treatment (400 mg 5-Flurouracil/kilogram bodyweight). Received one further identical injection on each of the three days following cytotoxic treatment. […]
Group 3: Vehicle control. Received intra-peritoneal injection, of sterile water, one hour prior to both cytotoxic treatments (400 mg 5-Flurouracil/kilogram bodyweight). Received one further identical injection on each of the three days following cytotoxic treatment. […]
On the fourth day after treatment the animals of each group were killed, and intestinal tissue harvested for histological analysis. Tissue sections were stained with haemotoxylin and eosin, and were analysed for the presence of regenerating intestinal crypts. Regenerating intestinal crypts are derived from one or more surviving clonogenic stem cells, whereas sterilised crypts (containing no surviving stem cells) disappear within two days of irradiation. The number of regenerating crypts per intestinal circumference was counted, and the mean crypt width measured. Scores for each animal were then corrected to account for the probability of preferentially scoring larger crypts according to the following equation: [formula]
For each treatment a Protection Factor was calculated using the following equation: corrected crypts/circumference treated corrected crypts/circumference untreated (vehicle)

[3] = 50 mg foscarnet 1 hr prior to 1st dose of 5-Flurouracil (400 mg/kg x 2 6 hrs apart) and D1, D2, D3, group Average
[4] = 50 mg foscarnet 1 hr prior to 1st dose of 5-Flurouracil (400 mg/kg x 2 6 hrs apart) and D1, D2, D3, individual mice
[5] = 50 mg foscarnet 1 hr prior to both doses of 5-Flurouracil (400 mg/kg x 2 6 hrs apart) and D1, D2, D3, group Average
[6] = 50 mg foscarnet 1 hr prior to both doses of 5-Flurouracil (400 mg/kg x 2 6 hrs apart) and D1, D2, D3, individual mice
[7] = 50 mg foscarnet 1 hr prior to both doses of 5-Flurouracil (500 mg/kg x 2 6 hrs apart) and D1, D2, D3, group Average
[8] = 50 mg foscarnet 1 hr prior to both doses of 5-Flurouracil (500 mg/kg x 2 6 hrs apart) and D1, D2, D3, individual mice
[9] = group 1: 50 mg/kg foscarnet 1 hr prior to first 5-Flurouracil dose (400 mg/kg x 2) and 3 days after

O=C(O)P(=O)(O)O [foscarnet, phosphonoformic acid trisodium salt hexahydrate]
protection against the deleterious effects of radiation treatment ([1]; 50 mg per kilogram bodyweight, 14 Gy partial body): protects completely
incidence of diarrhoea (perianal soilage) ([1]; 50 mg/kg intra-peritoneal 1 hr before 14 Gy and daily for 5 days, Day 3): No
incidence of diarrhoea (perianal soilage) ([1]; 50 mg/kg intra-peritoneal 1 hr before 14 Gy and daily for 5 days, Day 4): No diarrhoea
incidence of diarrhoea (perianal soilage) ([1]; 50 mg/kg intra-peritoneal 1 hr before 14 Gy and daily for 5 days, Day 5): No diarrhoea
incidence of diarrhoea (perianal soilage) ([1]; 50 mg/kg intra-peritoneal 1 hr before 14 Gy and daily for 5 days, Day 6): No diarrhoea
incidence of diarrhoea (perianal soilage) ([1]; 50 mg/kg intra-peritoneal 1 hr before 14 Gy and daily for 5 days, Day 7): No diarrhoea
incidence of diarrhoea or associated morbidity compared to vehicle controls ([1]; 100 mg per kilogram bodyweight, 14 Gy partial body): reduced incidence of diarrhoea or associated morbidity
incidence of diarrhoea (perianal soilage) ([1]; 100 mg/kg intra-peritoneal 1 hr before 14 Gy and daily for 5 days, Day 3): No
incidence of diarrhoea (perianal soilage) ([1]; 100 mg/kg intra-peritoneal 1 hr before 14 Gy and daily for 5 days, Day 4): No diarrhoea
incidence of diarrhoea (perianal soilage) ([1]; 100 mg/kg intra-peritoneal 1 hr before 14 Gy and daily for 5 days, Day 5): No diarrhoea
incidence of diarrhoea (perianal soilage) ([1]; 100 mg/kg intra-peritoneal 1 hr before 14 Gy and daily for 5 days, Day 6): 2 mice had
incidence of diarrhoea (perianal soilage) ([1]; 100 mg/kg intra-peritoneal 1 hr before 14 Gy and daily for 5 days, Day 7): 1 mouse had diarrhoea
Protection Factor ([2]; 50 mg foscarnet 1 hr prior to 1st dose of 5-Flurouracil (400 mg/kg x 2 6 hrs apart) and D1, D2 & D3): 1.87
corrected crypts/circumference [2, 3]: 20.0
no. crypts/circumference [2, 3]: 21.5
corrected crypts/circumference [2, 4]: 11.0 and 23.2 and 17.2 and 16.5 and 32.1
no. crypts/circumference [2, 4]: 12.4 and 24.1 and 17.9 (2×) and 35.2
Protection Factor ([2]; 50 mg foscarnet 1 hr prior to both doses of 5-Flurouracil (400 mg/kg x 2 6 hrs apart) and D1, D2 & D3): 1.59
corrected crypts/circumference [2, 5]: 17.0
no. crypts/circumference [2, 5]: 18.1
corrected crypts/circumference [2, 6]: 14.3 and 16.3 and 20.6 and 11.4 and 22.5
no. crypts/circumference [2, 6]: 15.9 and 16.8 and 22.8 and 11.4 and 23.4
Protection Factor ([2]; 50 mg foscarnet 1 hr prior to both doses of 5-Flurouracil (500 mg/kg x 2 6 hrs apart) and D1, D2 & D3): 1.46
corrected crypts/circumference [2, 7]: 10.2
no. crypts/circumference [2, 7]: 10.5
corrected crypts/circumference [2, 8]: 8.5 and 13.0 and 16.3 and 5.6 and 7.6
no. crypts/circumference [2, 8]: 8.5 and 13.0 and 17.9 and 6.0 and 7.3
numbers of intestinal crypts after exposure to 5-Flurouracil ([2]; Groups 1, 2 and 4 (50 mg foscarnet/kg regimens)): increased numbers of intestinal crypts
more crypts compared to mice treated with vehicle alone [2, 9]: ~50%
more small intestinal clonogenic stem cells survived [2, 9]: at least 50%
